Measured values: US20230181482A1, “LIPIDS FOR DELIVERY OF NUCLEIC ACID SEGMENTS” (AstraZeneca AB, priority 2021, published 2023)
One block for each molecule: values may come before it.

Experiments:
[1] = system: human broncho-epithelial cell line 16HBE; assay: In vitro expression of eGFP in 16HBE cells (GFP ELISA); type: cell-based; conditions: for eGFP in 16HBE: LNP formulation nos. 1 and 7 (N/P 3:1), 24 h, 125 ng mRNA per well, (standard error of the mean); for Ratio Lipid/MC3: ratio of eGFP expression in 16HBE to the MC3 formulation
Method: In vitro expression of EGFP protein from LNP formulation nos. 1 and 7 described in Example 58 was tested in the human broncho-epithelial cell line 16HBE (Sigma-Aldrich SCC150. 16HBE cells were maintained in DMEM, low glucose with GlutaMAX™+pyruvate (Gibco 21885-025) supplemented with MEM Non-Essential Amino Acids (Gibco 11140035) and 10% Heat-Inactivated Fetal Calf Serum (HI-FCS). The cells were cultured at 37° C. in a humidified atmosphere with 5% CO2. The day prior to an experiment, cells were detached from culture flasks using TrypLE™ (Gibco 12604013) and seeded in cell culture treated 96-well plates (Greiner Bio-One #655090) at a density of 20.000 cells per well. At the day of an experiment, 1 hour before incubation with LNPs, medium was removed and replaced with 95 ul DMEM including 1% HI-FCS. After 1 hour of conditioning, 5 ul of LNPs in PBS was added and mixed by a Bravo robot, resulting in a final concentration of 50-125 ng mRNA per well. Cells were then incubated for 24 h at 37° C. in a humidified atmosphere with 5% CO2. Absolute quantification of EGFP protein was done using ELISA (GFP SimpleStep ELISA kit, Abcam #ab171581). After 24 h of incubation, cells were lysed by adding 100 ul of lysis buffer to each well (Lysis buffer included in the kit, or Abcam products #ab193970 and #ab193971) Cells were then lysed by a freeze-thaw cycle in lysis buffer. Lysates were measured in appropriate dilutions according to the kit manufacturer's instructions. Results are reported as number of EGFP molecules expressed per mRNA dosed, after 24 h, calculated from the values of 125 ng mRNA per well. Results are plotted as Mean+SEM from triplicate values.
The expression of eGFP in 16HBE cytosol proves the function of the used LNP composition of eGFP mRNA in promoting gene transfection and […]. The quantification of eGFP allows to compare different LNP compositions with the MC3-based lipid composition, used as a comparator, with regard to the induction of protein expression in 16HBE to obtain the ratio of lipid to MC3. In this application, the LNP compositions differ in their ionizable lipid (IL) component. […] (see FIG. 1).

[2] = LNP particle size by dynamic light scattering (Zetasizer Nano ZS); type: physicochemical; conditions: DMPE-PEG2000
Method in brief: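 eGFP mRNA in 50 mM citrate (from pH 3 buffer) was mixed microfluidically (Aq:EtOH 3:1, 12 mL/min) with ethanolic lipids, ionizable lipid/cholesterol/DSPC/polymer-conjugated lipid 50/38.5/10/1.5 mol %, 12.5 mM total, at N/P 3:1 or 6:1. Dynamic light scattering gave z-average diameter. Number-weighted distributions used refractive index 1.45.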

[3] = mRNA encapsulation efficiency of LNP formulations (Quant-it Ribogreen assay with Triton-X100); type: physicochemical; conditions: DMPE-PEG2000
Method in brief: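 LNPs of ionizable lipid/cholesterol/DSPC/polymer-lipid (50/38.5/10/1.5 mol%, 12.5 mM total lipid) formed by microfluidic mixing with eGFP mRNA in 50 mM citrate, pH 3, at 3:1 aqueous:ethanol and N/P 3:1 or 6:1. Encapsulation efficiency measured by RiboGreen with and without Triton-X100 disruption.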

Female BALB/c mice = assay: eGFP expression in the liver at 24 hours after intravenous administration of LNP formulations to mouse (ELISA); type: in vivo; conditions: LNP N/P 3:1, DMPE-PEG2000
Method in brief: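 Mice (6-8 weeks, n=4/group) received a slow IV tail-vein bolus of LNP formulation at 0.3 mg/kg. Livers were harvested 24 hours post-dose and eGFP quantified by ELISA.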

[4] = Table 1, number-average particle diameter, N/P ratio 3:1
[5] = Table 1, z-average particle diameter, N/P ratio 3:1
[6] = Table 1, LNP with eGFP mRNA, N/P ratio 3:1

- <d>N (nm) [2, 4]: 68 nm
- <d>N (nm) ([2]; Table 1, number-average particle diameter, N/P ratio 6:1): 57 nm
- <d>Z (nm) [2, 5]: 84 nm
- <d>Z (nm) ([2]; Table 1, z-average particle diameter, N/P ratio 6:1): 74 nm
- % EE [3, 6]: 97%
- % EE ([3]; Table 1, LNP with eGFP mRNA, N/P ratio 6:1): 94%
SMILES: CCCCCC(CCCCC)CCOC(=O)CCCCCCCC(CCCCCCCC(=O)OCCC(CCCCC)CCCCC)NC1CC2(COC2)C1 [Compound 1, Bis(3-pentyloctyl) 9-((2-oxaspiro[3.3]heptan-6-yl)amino)heptadecanedioate]
- eGFP in 16HBE [1]: 0.044 (±0.004) number of protein molecules per number of dosed mRNA molecules
- Ratio Lipid/MC3 [1]: 1.9

- <d>N (nm) [2, 4]: 72 nm
- <d>Z (nm) [2, 5]: 86 nm
- <d>N (nm) ([2]; Table 3, N/P ratio 3:1): 63 nm
- <d>Z (nm) ([2]; Table 3, N/P ratio 3:1): 79 nm
- <d>N (nm) ([2]; Table 4, N/P ratio 3:1): 71 nm
- <d>Z (nm) ([2]; Table 4, N/P ratio 3:1): 88 nm
- <d>N (nm) ([2]; Table 5, N/P ratio 3:1): 66 nm
- <d>Z (nm) ([2]; Table 5, N/P ratio 3:1): 82 nm
- <d>N (nm) ([2]; Table 6, N/P ratio 3:1): 61 nm
- <d>Z (nm) ([2]; Table 6, N/P ratio 3:1): 74 nm
- % EE [3, 6]: 99%
- % EE ([3]; Table 3, N/P ratio 3:1): 98%
- % EE ([3]; Table 4, N/P ratio 3:1): 98%
- % EE ([3]; Table 5, N/P ratio 3:1): 98%
- % EE ([3]; Table 6, N/P ratio 3:1): 98%
SMILES: CCCCC/C=C\C/C=C\CCCCCCCCC(CCCCCCCC/C=C\C/C=C\CCCCC)OC(=O)CCCN(C)C [MC3, [(10Z,13Z)-1-[(9Z,12Z)-octadeca-9,12-dienyl]nonadeca-10,13-dienyl] 4-(dimethylamino)butanoate, reference compound]
- eGFP in 16HBE [1]: 0.023 (±0.001) number of protein molecules per number of dosed mRNA molecules
- Ratio Lipid/MC3 [1]: 1
- Liver eGFP protein (ng/g tissue) (Female BALB/c mice; Table 3, 0.3 mg/kg): 3091.5 ng/g tissue
- Liver eGFP protein (ng/g tissue) (Female BALB/c mice; Table 4, 0.3 mg/kg): 916.4 ng/g tissue
- Liver eGFP protein (ng/g tissue) (Female BALB/c mice; Table 5, 0.3 mg/kg): 1114.4 ng/g tissue
- Liver eGFP protein (ng/g tissue) (Female BALB/c mice; Table 6, 0.3 mg/kg): 3802.0 ng/g tissue
